Measurements taken from patent US20090076050A1, “SYNERGISTIC TUMOR-KILLING EFFECT OF RADIATION AND BERBERINE COMBINED TREATMENT IN LUNG CANCER” (CHUNG SHAN MEDICAL U., priority 2007, published 2009).

Assay: blood biochemical analysis in LLC model mice
Format: in vivo, C57BL/6 mice
Conditions: all six groups incl. berberine 1.0, 2.0 mg/kg i.p. alone or with IR, end of experiment
Method: The application of the additive cytotoxicity of IR combined with berberine in cancer treatment was further evidenced in an in vivo Lewis lung carcinoma (LLC) model in mice (Camphausen K, et al. Cancer Res 2001; 61:2207-11). Male C57BL/6 mice aged 4-6 weeks (National Taiwan University Animal Center, Taiwan) were used. To form a tumor xenograft, Lewis lung cells (2×10^6) were injected s.c. into the right hind limb. Animals were randomized into six groups: control, irradiation (IR) alone, berberine (1.0, 2.0 mg/kg) alone, and IR combined with berberine (1.0, 2.0 mg/kg). For tumor irradiation, mice were immobilized in a customized harness that exposed the right hind leg while shielding the remainder of the body by 3.5 cm of lead. Mice were exposed to a single dose of 8 Gy. […] To obtain tumor growth curves, three orthogonal tumor diameters were measured every 4-day intervals with a vernier caliper, and the mean values were calculated. […] Primary tumor growth delay was measured by calipers in two dimensions, and the volumes were calculated according to the formula: tumor volume=(width) 2×length×0.52. […] The tumor volume at the primary site of each group was measured before treatment, and the average tumor volume was designated as T0. When the animals were sacrificed at the end of experiment, the xenografts were removed, and the tumor volume was determined and presented as fold of T0. […]

## COc1ccc2cc3[n+](cc2c1OC)CCc1cc2c(cc1-3)OCO2 [berberine, Berberine]
  serum levels of AST, ALT, urea nitrogen, creatinine, complete blood cell counts, triglyceride and total cholesterol: no difference among groups
